Assay results from PubChem BioAssay (NCI).
Where “and” joins values, the source holds several entries; their conditions need not be identical. Equal entries are not always repeated.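 Five compound concentrations were applied to cells in 96-well plates for 48 hours; endpoints were derived by simple linear interpolation of the resulting dose-response curve. Here, GI50 denotes the concentration required for 50% inhibition of growth. Definition used: TGI = concentration required for complete inhibition of growth.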

Assays:
Assay in all cases: NCI-60 cell line screen, 48 h
[1] = tested on: 786-0 renal
[2] = tested on: A498 renal
[3] = tested on: A549 NSCLC
[4] = tested on: ACHN renal
[5] = tested on: CAKI-1 renal
[6] = tested on: CCRF-CEM leukemia
[7] = tested on: COLO 205 colon
[8] = tested on: DMS 273 small cell lung
[9] = tested on: EKVX NSCLC
[10] = tested on: HCC-2998 colon
[11] = tested on: HCT-116 colon
[12] = tested on: HCT-15 colon
[13] = tested on: HL-60(TB) leukemia
[14] = tested on: HOP-18 NSCLC
[15] = tested on: HOP-62 NSCLC
[16] = tested on: HOP-92 NSCLC
[17] = tested on: HT29 colon
[18] = tested on: IGROV1 ovarian
[19] = tested on: K-562 leukemia
[20] = tested on: KM12 colon
[21] = tested on: KM20L2 colon
[22] = tested on: LOX IMVI melanoma
[23] = tested on: LXFL 529 NSCLC
[24] = tested on: M14 melanoma
[25] = tested on: MALME-3M melanoma
[26] = tested on: MDA-MB-435
[27] = tested on: MOLT-4 leukemia
[28] = tested on: NCI-H226 lung
[29] = tested on: NCI-H23 lung
[30] = tested on: NCI-H460 lung
[31] = tested on: NCI-H522 lung
[32] = tested on: OVCAR-3 ovarian
[33] = tested on: OVCAR-4 ovarian
[34] = tested on: OVCAR-5 ovarian
[35] = tested on: OVCAR-8 ovarian
[36] = tested on: RPMI-8226 leukemia
[37] = tested on: RXF 393 renal
[38] = tested on: RXF-631 renal
[39] = tested on: SF-268 CNS
[40] = tested on: SF-295 CNS
[41] = tested on: SF-539 CNS
[42] = tested on: SK-MEL-2 melanoma
[43] = tested on: SK-MEL-28 melanoma
[44] = tested on: SK-MEL-5 melanoma
[45] = tested on: SK-OV-3 ovarian
[46] = tested on: SN12C renal
[47] = tested on: SNB-19 CNS
[48] = tested on: SNB-75 CNS
[49] = tested on: SNB-78 CNS
[50] = tested on: SR leukemia
[51] = tested on: SW-620 colon
[52] = tested on: TK-10 renal
[53] = tested on: U251 CNS
[54] = tested on: UACC-257 melanoma
[55] = tested on: UACC-62 melanoma
[56] = tested on: UO-31 renal
[57] = tested on: XF 498 CNS
[58] = tested on: DLD-1 colon
[59] = tested on: DMS 114 small cell lung

CC(C)S(=O)(=O)ON1C(=O)c2ccc(N(C)C)cc2C1=O
GI50 [1]: 19.5 µM
TGI [1]: 42 µM
TGI [2]: > 60.7 µM
TGI [3]: 58 µM
TGI [4]: 33.7 µM
GI50 [5]: 13.6 µM
TGI [5]: 28.7 µM
GI50 [6]: 0.29 µM
TGI [6]: 1.06 µM and 9.21 µM
GI50 [7]: 8.36 µM
TGI [7]: 21.5 µM
TGI [8]: 35.6 µM
TGI [9]: 41.7 µM
TGI [10]: 18 µM
GI50 [11]: 2.44 µM
TGI [11]: 9.13 µM and 30.8 µM
TGI [12]: 32.3 µM
GI50 [13]: 0.417 µM
TGI [14]: 27.3 µM
TGI [15]: > 63.4 µM
GI50 [16]: 28 µM
TGI [16]: 54.5 µM
TGI [17]: > 58 µM
TGI [18]: 43 µM
GI50 [19]: 2.48 µM
TGI [19]: 21.3 µM
TGI [20]: 46.4 µM
TGI [21]: 41.2 µM
GI50 [22]: 9.69 µM
TGI [22]: 29.6 µM
TGI [23]: 25.1 µM
TGI [24]: 40 µM
GI50 [25]: 20.5 µM
TGI [25]: 8.68 µM and 53.5 µM
TGI [26]: 4.75 µM
GI50 [27]: 0.4 µM
TGI [27]: 4.57 µM and > 22.8 µM
TGI [28]: > 60.9 µM
TGI [29]: > 59.2 µM
TGI [30]: 37.3 µM
GI50 [31]: 1.79 µM
TGI [31]: 4.42 µM and 3.85 µM
TGI [32]: 24.5 µM
GI50 [33]: 6.01 µM
TGI [33]: 33.7 µM
TGI [34]: 42 µM
GI50 [35]: 5.05 µM
TGI [35]: 6.47 µM and 63.7 µM
GI50 [36]: 1.71 µM
TGI [36]: 6.46 µM and 9.12 µM
GI50 [37]: 5.34 µM
TGI [37]: 17.9 µM
TGI [38]: 19.7 µM
TGI [39]: 66.8 µM
TGI [40]: > 67.1 µM
TGI [41]: 37.4 µM
GI50 [42]: 19.1 µM
TGI [42]: 45 µM
TGI [43]: 56.1 µM
GI50 [44]: 15.3 µM
TGI [44]: 31.4 µM
TGI [45]: > 78.6 µM
TGI [46]: 34.3 µM
TGI [47]: > 100 µM
GI50 [48]: 8.66 µM
TGI [48]: 39.3 µM
TGI [49]: > 100 µM
GI50 [50]: 0.752 µM
TGI [50]: 3.18 µM and 9.78 µM
GI50 [51]: 4.01 µM
TGI [51]: 38.6 µM
TGI [52]: 37.1 µM
TGI [53]: 30.3 µM
TGI [54]: 38.8 µM
TGI [55]: 33.7 µM
TGI [56]: 34.5 µM
TGI [57]: 32.3 µM

CCOC(=O)/C=C(\C)c1ccc(Cl)cc1
TGI [2]: > 100 µM
TGI [3]: > 100 µM
TGI [4]: > 100 µM
TGI [5]: > 100 µM
TGI [6]: > 100 µM
TGI [7]: > 100 µM
TGI [58]: > 100 µM
TGI [59]: > 100 µM
TGI [8]: > 100 µM
TGI [9]: > 100 µM
TGI [10]: > 100 µM
TGI [11]: > 100 µM
TGI [12]: > 100 µM
TGI [13]: > 100 µM
TGI [14]: > 100 µM
TGI [16]: > 100 µM
TGI [17]: > 100 µM
TGI [18]: > 100 µM
TGI [19]: > 100 µM
TGI [20]: > 100 µM
TGI [21]: > 100 µM
TGI [22]: > 100 µM
TGI [23]: > 100 µM
TGI [24]: > 100 µM
TGI [25]: > 100 µM
TGI [27]: > 100 µM
TGI [28]: 98.4 µM
TGI [29]: > 100 µM
TGI [30]: > 100 µM
TGI [33]: > 100 µM
TGI [34]: > 100 µM
TGI [35]: > 100 µM
TGI [36]: > 100 µM
TGI [37]: > 100 µM
TGI [38]: > 100 µM
TGI [39]: > 100 µM
TGI [40]: > 100 µM
TGI [41]: > 100 µM
TGI [42]: > 100 µM
TGI [43]: > 100 µM
TGI [46]: > 100 µM
TGI [47]: > 100 µM
TGI [48]: > 100 µM
TGI [49]: > 100 µM
TGI [50]: > 100 µM
TGI [51]: > 100 µM
TGI [52]: > 100 µM
TGI [53]: > 100 µM
TGI [54]: > 100 µM
TGI [56]: > 100 µM
TGI [57]: > 100 µM
